Reference: patent US9695195B2, “5-HT3 receptor antagonists” (Takeda Pharmaceutical Company Limited, priority 2012, dated 2017)

System: subchronic PCP-induced impairment in cognition memory
Experiment: Rodent novel object recognition (NOR) assay in phencyclidine-induced cognitive deficits modeling schizophrenia
Format: in vivo, rat
Settings: PCP-treated rats
Description: The aim of this study was to investigate the ability of the compounds of the invention to improve subchronic PCP-induced impairment in cognition memory using the NOR task in the rat, a paradigm of relevance to cognition in schizophrenia. Adult male Sprague-Dawley rats (250-350 g; Harlan, USA) were used for the experiments. Animal were acclimated to the facility for 7 days prior to experimentation. Seven groups of 14 animals per group were used for the experiment. One group of animals received vehicle (0.9% saline twice daily) and the remaining six groups received PCP (2.5 mg/kg, s.c. twice daily) for 7 days, followed by 5-days drug free. On the test day, the animals were allowed to acclimate to the testing room for 30 min prior to initiation of experiments. Experiments were carried out in a white plexiglass chamber, designated as experimental arena. The arena was placed in a dark experimental room that was illuminated by a halogen lamp, providing a dim light to the arena.
Animals were placed in the arena for a 5 minute period to freely explore the test chamber in the absence of objects (habituation). Animals were then returned to their home cage immediately upon completion of habituation for a 120 min period. (1R,3R,5S)-8-Methyl-8-azabicyclo[3.2.1]octan-3-yl 1-(2,2,2-trifluoroethyl)-1H-indole-3-carboxylate (0.1, 1, 10 mg/kg s.c.), or vehicle (veh, saline) was administered 120 min prior to T1 and galantamine (5 mg/kg, i.p.) was administered 30 min prior to T1. Animals were returned to the arena which contained two identical objects (plastic balls) placed at one end of the arena (acquisition, T1), and allowed to explore for a 5 min period. The time spent exploring the two objects was recorded. Animals were once again returned to the home cage for a period of 120 min (ITI).
ITI was followed by the retention phase (T2) where one of the objects presented in the first trial was replaced by a novel object and animals were allowed to explore for an additional 5 min period. Again, the time spent exploring the two objects was recorded.
For the retention phase, the differences between the time spent exploring the familiar object and the novel object were examined. All sessions were recorded and scored blindly for the time exploring objects. Exploration is defined as touching the object or directing nose towards object at a distance less that 2 cm. A minimal exploration criterion was used such that only animals with exploration time of greater than 5 seconds per object were included.
Comparisons of all treatment groups were conducted using a one-way ANOVA followed by a Bonferroni's post hoc test for multiple comparisons.

Row | SMILES | discrimination between familiar and novel objects (0.1 mg/kg s.c.) | discrimination between familiar and novel objects (1 mg/kg s.c.) | discrimination between familiar and novel objects (10 mg/kg s.c.) | discrimination between familiar and novel objects (galantamine 5 mg/kg i.p., 2 h ITI)
1 | CN1[C@@H]2CC[C@H]1C[C@@H](OC(=O)c1cn(CC(F)(F)F)c3ccccc13)C2 | did not demonstrate a statistically significant discrimination | demonstrated a statistically significant discrimination | demonstrated a statistically significant discrimination | –
2 | COc1ccc2c3c1O[C@H]1C[C@@H](O)C=C[C@@]31CCN(C)C2 [Galantamine, galantamine, reference compound] | – | – | – | statistically significant discrimination
